The text below walks through data of patent US20160106821A1, “FUNCTIONAL GHRELIN RECEPTOR ANTAGONISM DURING PREGNANCY TO PREVENT STRESS-ASSOCIATED MENTAL ILLNESS IN OFFSPRING AND MOTHERS” (Massachusetts Institute of Technology, priority 2014, published 2016).

One test relates to post-partum mothers. The experiment in a line: Depressive behaviors in post-partum mothers. It counts as in vivo. The following applies: MK-0677 treatment vs vehicle control (FIG. 1). The text has this:
FIG. 1 is a graph depicting depressive behaviors in post-partum mothers. […] The data is shown in Figure, a bar graph depicting depressive behaviors in post-partum mothers in response to vehicle control of MK-0677 treatment. Experiments were designed to determine the effects of elevated ghrelin activity on the fetus.

The next test relates to offspring. Nature of the test: Anhedonia (sucrose preference) in offspring after perinatal / in-womb exposure. The format is in vivo. The text has this:
FIG. 2 is a diagram depicting the protocol for analysis of babies following birth. FIG. 3 depicts the design of the study with protocols involving vehicle control, low MK0677 or high MK0677 treatment. FIG. 4 is a graph depicting the effects of perinatal exposure to MK0677 on female (dark bar) versus male (lighter gray bar) offspring. V refers to a vehicle control. H refers to high MK0677 exposure levels. FIG. 5 is a graph depicting the effects of exposure to MK0677 in the womb on offspring. The first set of experiments was designed to determine the degree of anhedonia in offspring when raised by an MK-treated mom. Anhedonia is the inability of a subject to experience pleasure from activities usually found enjoyable. A first experiment was conducted to show the effects of perinatal exposure to MK0677 on female versus male offspring. V refers to a vehicle control. H refers to high MK0677 exposure levels. […] Additionally the foster mother had no effect. […] Another study involved determining the effects of exposure to MK0677 in the womb on offspring.

As for `CC(C)(N)C(=O)N[C@H](COCc1ccccc1)C(=O)N1CCC2(CC1)CN(S(C)(=O)=O)c1ccccc12` [MK-0677], the maternal depressive behaviors result with post-partum mothers is “enhanced maternal depressive behaviors”. Besides, the “sucrose preference in offspring” value in the test on offspring (offspring from mothers exposed to high MK levels (n=11) vs controls (n=12), t-test, p=0.03 (FIG. 5)) was “significantly lower compared to controls”. The “degree of anhedonia in offspring: female versus male response” value with offspring (perinatal exposure, high MK0677 vs vehicle, female versus male offspring (FIG. 4)) was “no difference was seen between the response of male and female babies”. Moreover, the “degree of anhedonia in offspring: foster versus biological mother” value in the test with offspring (perinatal exposure, high MK0677 vs vehicle, foster mother had no effect (FIG. 4)) is listed as “an influence was observed for the biological mother”. Further, the “preference of sucrose solution to water (vs. 50%)” value in the test with offspring (pups from MK mothers, pups from vehicle-treated mothers significantly preferred sucrose (p=0.046 vs. 50%)) is “did not”.
